Results from ChEMBL document CHEMBL1201862, “PubChem BioAssay data set” (2004).
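Dose response: 5 concentrations. Exposure: 48 h. Format: 96-well plates. Endpoint: linear interpolation; highest concentration if not reached. The concentration for 50% growth inhibition is given as GI50.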 Active and inactive are the calls of the source. Cut-off read from the data, not from the text of the source: active = GI50 up to about 1.1 µM and inactive = higher.

Experiments:
Assay in all cases: NCI anticancer screen, dose series, 48 h
Malme-3M = test system: Malme-3M
CAKI-1 = test system: CAKI-1
A498 = test system: A498
SR = test system: SR
UO-31 = test system: UO-31
HCT-15 = test system: HCT-15
OVCAR-4 = test system: OVCAR-4
NCI-H23 = test system: NCI-H23
KM12 = test system: KM12
SW-620 = test system: SW-620
SN12C = test system: SN12C
K562 = test system: K562
HL-60 = test system: HL-60
LOX IMVI = test system: LOX IMVI
U-251 = test system: U-251
SK-MEL-28 = test system: SK-MEL-28
M14 = test system: M14
MDA-N = test system: MDA-N
HOP-62 = test system: HOP-62
MDA-MB-231 = test system: MDA-MB-231

Row | Structure (SMILES) | GI50 (Malme-3M) | GI50 (CAKI-1) | GI50 (A498) | GI50 (SR) | GI50 (UO-31) | GI50 (HCT-15) [µM] | GI50 (OVCAR-4) | GI50 (NCI-H23) | GI50 (KM12) | GI50 (SW-620) | GI50 (SN12C) | GI50 (K562) | GI50 (HL-60) | GI50 (LOX IMVI) | GI50 (U-251) | GI50 (SK-MEL-28) | GI50 (M14) | GI50 (MDA-N) | GI50 (HOP-62) | GI50 (MDA-MB-231)
1 | COc1ccc(C2C(C)C(=O)C(C)C(c3ccc(OC)cc3)N2N=O)cc1 (stereo not given) | > 537 µM (inactive) | 246 µM (inactive) | 203 µM (inactive) | > 685 µM (inactive) | 495 µM (inactive) | > 1000 | > 479 µM (inactive) | 261 µM (inactive) | > 678 µM (inactive) | > 1000 µM (inactive) | 530 µM (inactive) | > 1000 µM (inactive) | > 1000 µM (inactive) | 453 µM (inactive) | 117 µM (inactive) | > 640 µM (inactive) | 537 µM (inactive) | 163 µM (inactive) | 87.1 µM (inactive) | 27.2 µM (inactive)
2 | CC(C)C[C@H]1[C@@H](OCc2ccccc2)COS(=O)(=O)N1[C@H](C)c1ccccc1 | > 27.2 µM (inactive) | > 100 µM (inactive) | > 100 µM (inactive) | 3.24 µM (inactive) | 9.95 µM (inactive) | 29.1 | > 100 µM (inactive) | 6.98 µM (inactive) | 47.1 µM (inactive) | > 100 µM (inactive) | 75.3 µM (inactive) | 5.24 µM (inactive) | 6.11 µM (inactive) | 13.4 µM (inactive) | 15.2 µM (inactive) | > 100 µM (inactive) | > 100 µM (inactive) | > 78.5 µM (inactive) | > 84.1 µM (inactive) | 48 µM (inactive)
3 | C=C(C)C12CC3CC/C(=N/O)C(C1)C3(N1CCOCC1)C/C2=N/O (stereo not given) | > 100 µM (inactive) | > 100 µM (inactive) | > 100 µM (inactive) | > 100 µM (inactive) | > 100 µM (inactive) | > 100 | > 100 µM (inactive) | > 100 µM (inactive) | > 100 µM (inactive) | > 100 µM (inactive) | > 100 µM (inactive) | > 100 µM (inactive) | > 100 µM (inactive) | > 100 µM (inactive) | > 100 µM (inactive) | > 100 µM (inactive) | > 100 µM (inactive) | > 100 µM (inactive) | > 100 µM (inactive) | > 100 µM (inactive)
4 | O=C1C=C(NCCc2ccccc2)c2ccccc2C1=O | 1.06 µM (active) | 9.48 µM (inactive) | 3.71 µM (inactive) | 5.94 µM (inactive) | 3.72 µM (inactive) | 1.67 | 3.93 µM (inactive) | 2.33 µM (inactive) | 2.63 µM (inactive) | 1.85 µM (inactive) | 1.85 µM (inactive) | 4.34 µM (inactive) | 1.69 µM (inactive) | 1.43 µM (inactive) | 4.75 µM (inactive) | 1.87 µM (inactive) | 1.59 µM (inactive) | 1.78 µM (inactive) | 2.55 µM (inactive) | 5.86 µM (inactive)
5 | CSC(=N\c1ccccc1)/N=C(\SCc1ccccc1)N(C)C | 1.14 µM (inactive) | 0.927 µM (active) | 1.65 µM (inactive) | 0.16 µM (active) | 1.46 µM (inactive) | 0.463 | 0.889 µM (active) | 1.24 µM (inactive) | 0.48 µM (active) | 0.312 µM (active) | 1.02 µM (active) | 0.05 µM (active) | 0.172 µM (active) | 0.189 µM (active) | 1.12 µM (inactive) | 0.581 µM (active) | 0.789 µM (active) | 0.748 µM (active) | 1.7 µM (inactive) | 1.17 µM (inactive)
6 | Nc1c(O)c(C(=O)O)cc2ccccc12 | 15.3 µM (inactive) | 22.6 µM (inactive) | > 100 µM (inactive) | 39.4 µM (inactive) | 47.3 µM (inactive) | 36.6 | 22.9 µM (inactive) | 23.3 µM (inactive) | 40.2 µM (inactive) | 18.3 µM (inactive) | 38.4 µM (inactive) | 31.8 µM (inactive) | 32.7 µM (inactive) | 10.6 µM (inactive) | 30.3 µM (inactive) | 37.2 µM (inactive) | 17.7 µM (inactive) | 17.9 µM (inactive) | > 100 µM (inactive) | 15.3 µM (inactive)
7 | COc1ccc(C(O)c2ccc3c(c2)OCO3)cc1 (stereo not given) | > 100 µM (inactive) | > 100 µM (inactive) | > 100 µM (inactive) | 25.6 µM (inactive) | 74.1 µM (inactive) | > 100 | 67.6 µM (inactive) | > 100 µM (inactive) | > 100 µM (inactive) | > 100 µM (inactive) | > 100 µM (inactive) | > 100 µM (inactive) | > 100 µM (inactive) | > 100 µM (inactive) | > 100 µM (inactive) | > 100 µM (inactive) | > 100 µM (inactive) | > 100 µM (inactive) | > 100 µM (inactive) | > 100 µM (inactive)
8 | Cc1cnc(NCCCN(C)C)c2c1[nH]c1ccc3cc(O)ccc3c12 | 0.879 µM (active) | 0.566 µM (active) | 1.56 µM (inactive) | 0.0617 µM (active) | 2.03 µM (inactive) | 4.63 | 0.282 µM (active) | 0.499 µM (active) | 1.39 µM (inactive) | 0.166 µM (active) | 0.244 µM (active) | 1.28 µM (inactive) | 3.32 µM (inactive) | 0.247 µM (active) | 0.164 µM (active) | 1.39 µM (inactive) | 1.28 µM (inactive) | 1.04 µM (active) | 0.267 µM (active) | 0.879 µM (active)
9 | Cc1cc(-c2c(F)cc3c4nn([C@H]5CC[C@@H](N(C)C)CC5)c(=O)c-4cn(C4CC4)c3c2F)cc(C)n1 | 0.38 µM (active) | 0.0519 µM (active) | 0.0229 µM (active) | 0.0735 µM (active) | 1.59 µM (inactive) | 1.74 | 3.36 µM (inactive) | 0.132 µM (active) | 0.313 µM (active) | 0.195 µM (active) | 0.168 µM (active) | 0.0297 µM (active) | 0.0383 µM (active) | 0.0998 µM (active) | 0.105 µM (active) | 0.687 µM (active) | 0.46 µM (active) | 1.56 µM (inactive) | 0.097 µM (active) | 0.536 µM (active)
10 | C=C1CC2(CC(c3ccccc3OC)OC(c3ccccc3OC)C2)OC1=O (stereo not given) | 1.72 µM (inactive) | 2.47 µM (inactive) | 5.81 µM (inactive) | 1.84 µM (inactive) | 1.52 µM (inactive) | 2.28 | 4.35 µM (inactive) | 2.1 µM (inactive) | 2.27 µM (inactive) | 1.72 µM (inactive) | 1.97 µM (inactive) | 2.06 µM (inactive) | 0.771 µM (active) | 1.47 µM (inactive) | 7.16 µM (inactive) | 1.45 µM (inactive) | 1.72 µM (inactive) | 1.83 µM (inactive) | 13.6 µM (inactive) | 1.77 µM (inactive)
11 | Cc1ccc2c(c1)OC1Nc3ccccc3C1=C2O (stereo not given) | 74.8 µM (inactive) | 23.2 µM (inactive) | 15.5 µM (inactive) | 31.2 µM (inactive) | 21.2 µM (inactive) | 25.1 | 40.4 µM (inactive) | 23.7 µM (inactive) | 26.4 µM (inactive) | 29.2 µM (inactive) | 27.3 µM (inactive) | 25.9 µM (inactive) | 16.2 µM (inactive) | 23.8 µM (inactive) | 20.4 µM (inactive) | 53.7 µM (inactive) | 21.5 µM (inactive) | 24.7 µM (inactive) | 27.4 µM (inactive) | 20.6 µM (inactive)
12 | O=C(COc1ccc(OCC(=O)N/N=C/c2ccc(-c3ccc(Cl)cc3Cl)o2)c(Cl)c1)N/N=C/c1ccc(-c2ccc(Cl)cc2Cl)o1 | 82.8 µM (inactive) | > 100 µM (inactive) | 49.3 µM (inactive) | 0.342 µM (active) | > 100 µM (inactive) | > 100 | > 100 µM (inactive) | > 100 µM (inactive) | > 100 µM (inactive) | > 100 µM (inactive) | > 100 µM (inactive) | 15.3 µM (inactive) | 16.4 µM (inactive) | 57.9 µM (inactive) | 46.7 µM (inactive) | > 100 µM (inactive) | > 100 µM (inactive) | 31.6 µM (inactive) | 27.5 µM (inactive) | 35 µM (inactive)
13 | CC1(C)CC2=NC(SSC3=C(C#N)C(c4ccc(Br)cc4)C4=C(O)CC(C)(C)CC4=N3)=C(C#N)C(c3ccc(Br)cc3)C2=C(O)C1 (stereo not given) | > 100 µM (inactive) | > 100 µM (inactive) | > 100 µM (inactive) | 48.3 µM (inactive) | > 100 µM (inactive) | > 100 | > 100 µM (inactive) | > 100 µM (inactive) | > 100 µM (inactive) | > 100 µM (inactive) | > 100 µM (inactive) | 75 µM (inactive) | 46.6 µM (inactive) | > 100 µM (inactive) | > 100 µM (inactive) | > 100 µM (inactive) | > 100 µM (inactive) | > 100 µM (inactive) | > 100 µM (inactive) | > 100 µM (inactive)
